Data set [1] has as its target T1, OCTN2 (organic cation/carnitine transporter 2) (Homo sapiens, UniProt O76082).
T1 sequence (O76082 whole entry): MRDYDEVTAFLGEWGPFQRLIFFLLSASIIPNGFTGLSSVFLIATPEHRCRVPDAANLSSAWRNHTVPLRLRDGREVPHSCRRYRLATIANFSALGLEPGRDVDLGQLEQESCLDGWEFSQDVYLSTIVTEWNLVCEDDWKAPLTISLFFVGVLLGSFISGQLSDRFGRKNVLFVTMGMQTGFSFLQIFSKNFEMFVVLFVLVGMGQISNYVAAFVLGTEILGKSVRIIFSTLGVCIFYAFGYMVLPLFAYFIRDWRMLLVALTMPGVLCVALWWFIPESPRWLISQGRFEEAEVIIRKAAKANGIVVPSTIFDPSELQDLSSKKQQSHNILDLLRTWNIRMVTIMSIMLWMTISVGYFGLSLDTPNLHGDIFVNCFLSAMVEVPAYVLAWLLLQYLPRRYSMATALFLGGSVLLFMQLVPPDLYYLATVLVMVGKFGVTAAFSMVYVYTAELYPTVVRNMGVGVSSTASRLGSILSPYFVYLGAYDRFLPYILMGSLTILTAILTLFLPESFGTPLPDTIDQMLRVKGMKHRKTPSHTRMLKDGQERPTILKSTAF
Put plainly: TP_TRANSPORTER: inhibition of Carnitine uptake (Carnitine: 0.010? uM, Aldosterone: 500 uM) in OCTN2-expressing HEK293 cells. The format is functional, cell-based. More on the design: scale not given: the % may be the effect or the level left. The settings on record: HEK293 cells that express OCTN2, probe Carnitine, read-out: Activity.

Data set [2] has as its target T2, Organic cation/carnitine transporter 2 (Homo sapiens, UniProt O76082).
T2 sequence (O76082 whole entry): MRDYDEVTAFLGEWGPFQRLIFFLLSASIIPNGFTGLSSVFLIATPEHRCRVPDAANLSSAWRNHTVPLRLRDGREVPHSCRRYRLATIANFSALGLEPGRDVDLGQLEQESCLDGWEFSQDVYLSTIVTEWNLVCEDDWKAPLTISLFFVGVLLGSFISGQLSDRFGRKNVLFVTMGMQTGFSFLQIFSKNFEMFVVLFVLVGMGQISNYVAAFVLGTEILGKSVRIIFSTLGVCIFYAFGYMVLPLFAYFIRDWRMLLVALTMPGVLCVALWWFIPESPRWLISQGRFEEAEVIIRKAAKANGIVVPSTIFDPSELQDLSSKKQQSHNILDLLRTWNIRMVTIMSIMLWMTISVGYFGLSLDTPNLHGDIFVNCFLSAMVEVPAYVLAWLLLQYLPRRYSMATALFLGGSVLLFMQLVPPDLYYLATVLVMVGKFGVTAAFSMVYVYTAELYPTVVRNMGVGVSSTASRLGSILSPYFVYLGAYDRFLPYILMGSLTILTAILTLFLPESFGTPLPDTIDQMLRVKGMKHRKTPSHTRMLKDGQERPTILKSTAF
Put plainly: TP_TRANSPORTER: inhibition of Carnitine uptake (Carnitine: 0.010? uM, Cephalotin: 500 uM) in OCTN2-expressing HEK293 cells. Type of data set: functional, cell-based. The conditions noted are these: hek293, 500 µM.

In data set [3] the target is T2, Organic cation/carnitine transporter 2. Put plainly: (§1) TP_TRANSPORTER: uptake in OCTN2-expressing HEK293 cells. The format is functional, cell-based.
In data set [4] the target is T1, OCTN2 (organic cation/carnitine transporter 2). Put plainly: TP_TRANSPORTER: inhibition of Carnitine uptake (Carnitine: 0.010? uM, Valproic acid: 500 uM) in OCTN2-expressing HEK293 cells. The conditions noted are these: HEK293 cells that express OCTN2, probe Carnitine, read-out: Activity. Also on record: scale not given: the % may be the effect or the level left. Type of data set: functional, cell-based.

Data set [5] shares this target. As to the kind of experiment: TP_TRANSPORTER: inhibition of Carnitine uptake (Carnitine: 0.010? uM, S-methylmethionine sufonium: 500 uM) in OCTN2-expressing HEK293 cells. The format is functional, cell-based. Also on record: scale not given: the % may be the effect or the level left. The settings on record: HEK293 cells that express OCTN2, probe Carnitine, read-out: Activity.

The target in data set [6] is T2, Organic cation/carnitine transporter 2. As to the kind of experiment: TP_TRANSPORTER: inhibition of Carnitine uptake (Carnitine: 0.010? uM, Cephaloglycin: 500 uM) in OCTN2-expressing HEK293 cells. The format is functional, cell-based. The conditions noted are these: hek293, 500 µM.
The target of data set [7] is T1, OCTN2 (organic cation/carnitine transporter 2). Put plainly: TP_TRANSPORTER: inhibition of Carnitine uptake (Carnitine: 0.010? uM, Corticosterone: 500 uM) in OCTN2-expressing HEK293 cells. The format is functional, cell-based. The conditions noted are these: HEK293 cells that express OCTN2, probe Carnitine, read-out: Activity. More on the design: scale not given: the % may be the effect or the level left.

For data set [8] the target is unchanged. Put plainly: TP_TRANSPORTER: inhibition of Carnitine uptake (Carnitine: 0.010? uM, Probenecid: 500 uM) in OCTN2-expressing HEK293 cells. Type of data set: functional, cell-based. More on the design: scale not given: the % may be the effect or the level left. The settings on record: HEK293 cells that express OCTN2, probe Carnitine, read-out: Activity.
For data set [9] the target is unchanged. Put plainly: TP_TRANSPORTER: inhibition of Carnitine uptake (Carnitine: 0.010? uM, Emetine: 500 uM) in OCTN2-expressing HEK293 cells. The settings on record: HEK293 cells that express OCTN2, probe Carnitine, read-out: Activity. More on the design: scale not given: the % may be the effect or the level left. The format is functional, cell-based.
Data set [10] addresses T2, Organic cation/carnitine transporter 2. Put plainly: TP_TRANSPORTER: inhibition of Carnitine uptake (Carnitine: 0.010? uM, Carnosine: 500 uM) in OCTN2-expressing HEK293 cells. The settings on record: hek293, 500 µM. The format is functional, cell-based.
For data set [11] the target is unchanged. Put plainly: TP_TRANSPORTER: inhibition of Carnitine uptake (Carnitine: 0.010? uM, Creatinine: 500 uM) in OCTN2-expressing HEK293 cells. Type of data set: functional, cell-based. The settings on record: hek293, 500 µM.
Data set [12] deals with T1, OCTN2 (organic cation/carnitine transporter 2). As to the kind of experiment: TP_TRANSPORTER: inhibition of Carnitine uptake (Carnitine: 0.010? uM, Quinidine: 500 uM) in OCTN2-expressing HEK293 cells. The format is functional, cell-based. Also on record: scale not given: the % may be the effect or the level left. The settings on record: HEK293 cells that express OCTN2, probe Carnitine, read-out: Activity.

Data set [13] shares this target. Put plainly: TP_TRANSPORTER: inhibition of Carnitine uptake (Carnitine: 0.010? uM, GPFX: 500 uM) in OCTN2-expressing HEK293 cells. More on the design: scale not given: the % may be the effect or the level left. The settings on record: HEK293 cells that express OCTN2, probe Carnitine, read-out: Activity. The format is functional, cell-based.
The target is the same in data set [14]. Put plainly: in vitro. The conditions noted are these: HEK293 cells that express OCTN2, probe Carnitine.
Data set [15] has the same target. Put plainly: in vitro. The conditions noted are these: HEK293 cells that express OCTN2, probe Carnitine. This is another data set of the same source.
The target is the same in data set [16]. Put plainly: TP_TRANSPORTER: inhibition of Carnitine uptake (Carnitine: 0.010? uM, Pyrilamine: 500 uM) in OCTN2-expressing HEK293 cells. Type of data set: functional, cell-based. More on the design: scale not given: the % may be the effect or the level left. The conditions noted are these: HEK293 cells that express OCTN2, probe Carnitine, read-out: Activity.

Substrate in data set [17]: CC(=O)O[C@H](CC(=O)[O-])C[N+](C)(C)C
Described as §1. The format is functional, cell-based.

Substrate in data set [18]: C[N+](C)(C)CC(O)CC(=O)[O-]
As to the kind of experiment: TP_TRANSPORTER: uptake, D-Carnitine in OCTN2-expressing HEK293 cells. The format is functional, cell-based.

In the case of `C[C@]12CCC(=O)C=C1CC[C@@H]1[C@@H]2[C@@H](O)C[C@]2(C=O)[C@@H](C(=O)CO)CC[C@@H]12` [ALDOSTERONE], the activity at 500 µM in data set [1] worked out at 37.1%.
As for `CC(=O)OCC1=C(C(=O)O)N2C(=O)[C@@H](NC(=O)Cc3cccs3)[C@H]2SC1` [CEPHALOTHIN], the Activity entry in [2] is “is not an inhibitor [-]”.
Consider `CCCC(CCC)C(=O)O` [VALPROIC ACID], for which the Activity result in [3] was “substrate [+]”. Moreover, the activity at 500 µM in data set [4] was 82.3%.
For the molecule `C[S+](C)CC[C@H](N)C(=O)[O-]`, the activity at 500 µM in [5] was found to be 8.7%.
Turning to `CC(=O)OCC1=C(C(=O)O)N2C(=O)[C@@H](NC(=O)[C@H](N)c3ccccc3)[C@H]2SC1` [CEPHALOGLYCIN], the Activity entry in [6] was “is not an inhibitor [-]”.
As for `C[C@]12C[C@H](O)[C@H]3[C@@H](CCC4=CC(=O)CC[C@@]43C)[C@@H]1CC[C@@H]2C(=O)CO` [CORTICOSTERONE], the activity at 500 µM in [7] was determined as 9.3%.
`CCCN(CCC)S(=O)(=O)c1ccc(C(=O)O)cc1` [PROBENECID]: the activity at 500 µM in [8] was 77.4%.
On to `CC[C@H]1CN2CCc3cc(OC)c(OC)cc3[C@@H]2C[C@@H]1C[C@H]1NCCc2cc(OC)c(OC)cc21` [EMETINE], for which the activity at 500 µM in [9] was 16.6%.
Regarding `NCCC(=O)N[C@@H](Cc1cnc[nH]1)C(=O)O` [CARNOSINE], the Activity result in data set [10] is “is not an inhibitor [-]”.
For `CN1CC(=O)NC1=N` [CREATININE], the Activity result in data set [11] was “is not an inhibitor [-]”.
Consider `C=C[C@H]1C[N@@]2CC[C@H]1C[C@@H]2[C@@H](O)c1ccnc2ccc(OC)cc12` [QUINIDINE], for which the Activity entry in [3] is “substrate [+]”. Besides, in data set [12], the activity at 500 µM came out at 9.1%.
In the case of `Cc1c(F)c(N2CCNC(C)C2)cc2c1c(=O)c(C(=O)O)cn2C1CC1` (stereo unspecified) [GREPAFLOXACIN], in data set [13], the activity at 500 µM came out at 68.6%.
Consider `Clc1cccc(Cl)c1N=C1NCCN1` [CLONIDINE], for which the activity at 500 µM in [14] came to 67.6%.
For `CN/C(=N/CCSCc1nc[nH]c1C)NC#N` [CIMETIDINE], in [3], the Activity entry was “is not a substrate [-]”. The molecule further had an activity at 500 µM in [15] of 66.4%.
Consider `COc1ccc(CN(CCN(C)C)c2ccccn2)cc1` [PYRILAMINE], for which the Activity entry in [3] is “substrate [+]”. For the same molecule, in data set [16], the activity at 500 µM was 38.6%.

B1: Organic cation/carnitine transporter 2 (Homo sapiens) (protein)
chain: MRDYDEVTAFLGEWGPFQRLIFFLLSASIIPNGFTGLSSVFLIATPEHRCRVPDAANLSSAWRNHTVPLRLRDGREVPHSCRRYRLATIANFSALGLEPGRDVDLGQLEQESCLDGWEFSQDVYLSTIVTEWNLVCEDDWKAPLTISLFFVGVLLGSFISGQLSDRFGRKNVLFVTMGMQTGFSFLQIFSKNFEMFVVLFVLVGMGQISNYVAAFVLGTEILGKSVRIIFSTLGVCIFYAFGYMVLPLFAYFIRDWRMLLVALTMPGVLCVALWWFIPESPRWLISQGRFEEAEVIIRKAAKANGIVVPSTIFDPSELQDLSSKKQQSHNILDLLRTWNIRMVTIMSIMLWMTISVGYFGLSLDTPNLHGDIFVNCFLSAMVEVPAYVLAWLLLQYLPRRYSMATALFLGGSVLLFMQLVPPDLYYLATVLVMVGKFGVTAAFSMVYVYTAELYPTVVRNMGVGVSSTASRLGSILSPYFVYLGAYDRFLPYILMGSLTILTAILTLFLPESFGTPLPDTIDQMLRVKGMKHRKTPSHTRMLKDGQERPTILKSTAF
The Km is the substrate concentration at which the rate is half of its maximum. For the molecule B1, the Km in [17] is 8.5 µM; in [18], 10.9 µM.

(Values after ChEMBL document CHEMBL2073748, “Na(+)-dependent carnitine transport by organic cation transporter (OCTN2): its pharmacological and toxicological relevance” (J Pharmacol Exp Ther, 1999).)
